Values of other authors in patent US20230346889A9, “TREATMENT OF ACUTE HEART FAILURE” (AnaCardio R&D AB, priority 2019, published 2023).
Non-standard residues stand in square brackets, D forms with d. Residues, ends and D or L forms follow the SMILES beside them. dTrp(2-Me) = Cc1[nH]c2ccccc2c1C[C@@H](N)C(=O)O; d2Nal = N[C@H](Cc1ccc2ccccc2c1)C(=O)O

How the values were obtained:
[1] = tested on: patients with heart failure; conditions: cited from earlier work; for association with mortality: observational ADHERE Registry
[2] = tested on: dogs with acute myocardial infarction; conditions: US2004014671A1; cited from earlier work

| SMILES | association with mortality [1] | improvement of CO [2] | other results |
| --- | --- | --- | --- |
| C[C@@H]1CC(=O)NN=C1c1ccc(NN=C(C#N)C#N)cc1 [Levosimendan] |  |  | hypotension and arrhythmias vs. placebo ([1]; REVIVE I and II): increased hypotension and arrhythmias vs. placebo; effect on CO and blood pressure ([1]; human, in vivo): increases CO but also causes hypotension |
| Cc1[nH]c(=O)c(C#N)cc1-c1ccncc1 [milrinone] | independently associated with increased mortality |  | adverse outcomes vs. placebo ([1]; randomized OPTIME CHF): caused significantly more hypotension and atrial arrhythmias and non-significantly more deaths |
| C[C@H](NC(=O)[C@@H](Cc1ccc2ccccc2c1)NC(=O)[C@@H](C)N)C(=O)N[C@@H](Cc1c[nH]c2ccccc12)C(=O)N[C@H](Cc1ccccc1)C(=O)N[C@@H](CCCCN)C(N)=O [Pralmorelin] (H-[dA][d2Nal]AW[dF]K-NH2) |  | improved |  |
| Cc1[nH]c2ccccc2c1C[C@@H](NC(=O)[C@@H](N)Cc1cnc[nH]1)C(=O)N[C@@H](C)C(=O)N[C@@H](Cc1c[nH]c2ccccc12)C(=O)N[C@H](Cc1ccccc1)C(=O)N[C@@H](CCCCN)C(N)=O [hexarelin] (H-H[dTrp(2-Me)]AW[dF]K-NH2) |  | not |  |
| CC(CCc1ccc(O)cc1)NCCc1ccc(O)c(O)c1 (stereo not shown) [dobutamine] | independently associated with increased mortality |  |  |
